Laboratory results as given in US7112578B2, “Methods and compositions for treatment of inflammatory disease” (priority 2000, dated 2006).

What was measured:
Format in all cases: in vivo, human
bilateral hip arthritis = test: Treatment of bilateral hip arthritis with a CMO compound and doxycycline (case report)
Description: Doxycycline therapy was used for treatment of a middle aged person suffering from bilateral hip arthritis and experiencing severe pain despite increasing doses of NSAIDs. […] Cox-2 inhibitors were substituted for the NSAID agents with better results. However, over time, it was necessary to increase the doses of both agents to two to three times the initial dose in order to maintain adequate symptomatic relief. […] A CMO compound was added and the dosage of the other agents decreased to initial levels. […] The Cox-2 agent was discontinued with no increase in severity of symptoms.

knee arthritis = test: Treatment of knee arthritis with a CMO compound and a tetracycline compound (case report)
Description: NSAID therapy was halted and tetracycline therapy was added.

[1] = system: ankle and knee arthritis pain; test: Treatment of ankle and knee arthritis with a CMO compound and doxycycline (case report)
bee sting = test: Relief of venom induced inflammation, topical treatment of bee stings (case report); settings: bee sting on one arm of the same individual
Description: Different bee stings on the same individual were treated by two different methods. A bee sting on one arm was treated with papain with mild relief from pain and swelling. A second bee sting on the other arm was treated with papain, a eutectic mixture of local anaesthetics (EMLA®) and a topical steroid (Kenalog). […] The improved relief from pain was apparent even after all other sensation had returned to normal in the area which received the EMLA® treatment.

[2] = dosage of doxycycline and Cox-2 agent decreased to initial levels

Molecule: CCCC/C=C\CCCCCCCC(=O)OCCCCCCCCCCCCCCCC [CMO, cetyl myristoleate]
- side effects after a CMO compound was added (bilateral hip arthritis; [2]): side effects disappeared
- symptomatic relief after a CMO compound was added (bilateral hip arthritis; [2]): improved symptomatic relief
- symptoms when the agent was discontinued (bilateral hip arthritis; patient on CMO compound and doxycycline): worsening symptomatology
- symptoms when the agent was discontinued (knee arthritis; despite increase in dose of the remaining agent): symptoms worsened
- symptomatic relief of knee arthritis (knee arthritis; middle-aged, one patient): did not respond well
- symptoms when the agent was discontinued ([1]; combination of CMO compound and doxycycline): Symptoms returned
- relief of ankle and knee arthritis pain ([1]; female senior citizen, CMO therapy alone): no or minimal relief

Molecule: C[C@H]1c2cccc(O)c2C(=O)C2=C(O)[C@]3(O)C(=O)C(C(N)=O)=C(O)[C@@H](N(C)C)[C@@H]3[C@@H](O)[C@@H]21 [doxycycline, reference compound]
- side effects at two to three times the initial dose of both agents (bilateral hip arthritis; doxycycline with Cox-2 inhibitor): dizziness, nausea and abdominal pain
- side effect, doxycycline added to NSAIDs (bilateral hip arthritis; middle aged person): gastrointestinal upset was problematic

B1: papain (protein, UniProt P00784 134-345, looked up)
Papain: IPEYVDWRQKGAVTPVKNQGSCGSCWAFSAVVTIEGIIKIRTGNLNEYSEQELLDCDRRSYGCNGGYPWSALQLVAQYGIHYRNTYPYEGVQRYCRSREKGPYAAKTDGVRQVQPYNEGALLYSIANQPVSVVLEAAGKDFQLYRGGIFVGPCGNKVDHAVAAVGYGPNYILIKNSWGTGWGENGYIRIKRGTGNSYGVCGLYTSSFYPVKN
notes: proteolytic enzyme applied topically
- relief from pain (bee sting): mild relief
- swelling (bee sting): mild relief
